BindingDB's records for doi:10.1016/j.bmc.2012.10.036 (Glaxosmithkline, 2012)

Assay: Inhibition of glucocorticoid receptor in human H13 cells assessed as inhibition of glucocorticoid-induced cell proliferation after 3 hrs by [3H]-thymidine incorporation assay

SMILES: CC[C@H]1OC(=O)[C@H](C)[C@@H](O[C@H]2C[C@@](C)(OC)[C@@H](O)[C@H](C)O2)[C@H](C)[C@@H](O[C@@H]2O[C@H](C)C[C@H](N(C)C)[C@H]2O)[C@](C)(O)C[C@@H](C)CN(CCCNC(=O)[C@H]2[C@H](C)C[C@H]3[C@@H]4CCC5=CC(=O)C=C[C@]5(C)[C@@]4(F)[C@@H](O)C[C@@]32C)[C@H](C)[C@@H](O)[C@]1(C)O
- EC50: 50 nM
